Tests used:
powdery mildew = assay: Test Example 9: control test of wheat powdery mildew, cup in greenhouse, inoculated, Norin No. 61 (Tables 10 to 14); type: in vivo, Blumeria graminis; design: key to Degree of Disease Occurrence: Σ(index×leaves)/(4×leaves investigated)×100; 0 = no disease, 100 = max
Procedure: (§1) Degree of Disease Occurrence=Σ(Index×Number of Leaves of Index)/(4×Number of Investigated Leaves)×100 (1)
Seed of wheat (variety: Norin No. 61) was used, and 100 ml of suspension waters each containing the compound shown in Table 10 at an amount shown in […] (synthesis was performed in accordance with a known method, a solution dissolved in DMSO or formulated 10% wettable powder was used) were prepared. The seed having a mass of 1 kg of wheat was mixed into the suspension water with a chemical treated amount shown in Table 10, and air-dried, and then, 5 seeds were sown in a plastic cup having a diameter of 6 cm containing river sand and managed in a greenhouse. In Comparative Examples, 20 ml of the suspension water of an active ingredient, which had been adjusted to have a concentration shown in Table 10, was sprayed in a frame of 45 cm×45 cm in which a pot of wheat seedlings was placed (corresponding to 1000 L/ha) 14 days after seeding. On day 14 after seeding, conidiospores of powdery mildew were sifted over leaves of wheat seedlings and inoculated onto the leaves (after the sprayed liquid was dried in the case of Comparative Examples), a lesion area ratio of powdery mildew in a first leaf was investigated 21 days after seeding according to the criteria in Table 1, and the degree of disease occurrence was calculated by the above calculation formula (1).

septoria leaf blotch = assay: Test Example 10: control test of septoria leaf blotch of wheat, cup in greenhouse, inoculated, variety ARKEOS (Tables 15 to 19); type: in vivo, Septoria tritici; conditions: Table 16; for Degree of Disease Occurrence: untreated 57.1; for Disease Leaf Rate (%): untreated 93.3
Procedure: as §1
Seed of wheat (variety: ARKEOS) was used, and 100 ml of suspension waters each containing the compound shown in Table 15 at an amount shown in Table 15 (synthesis was performed in accordance with a known method, a liquid dissolved in a small amount of DMSO or formulated 10% wettable powder was used) were prepared. Seed having a mass of 1 kg was mixed into the suspension water with a rate shown in Examples of Table 15, and air-dried, and then, 5 seeds were sown in a plastic cup having a diameter of 6 cm containing mixed soil of river sand and horticultural soil and managed in a greenhouse. In Comparative Examples, 20 ml of suspension water of an active ingredient, which had been adjusted to have a concentration shown in Table 15 to 19, was sprayed in a frame of 45 cm×45 cm in which a pot of wheat seedlings was placed (corresponding to 1000 L/ha) 14 days after seeding. On day 14 after seeding, a spore suspension in which conidiospores of septoria leaf blotch are suspended was sprayed and inoculated on leaves of wheat seedlings (after the sprayed liquid was dried in the case of Comparative Examples), a lesion area ratio of septoria leaf blotch in a second leaf was investigated approximately 35 days after seeding according to the criteria in Table 1, and the degree of disease occurrence was calculated by the above calculation formula (1).

[1] = Table 11 run (different day), Foliage Treatment, spray 5 ppm (5 g/ha)
[2] = Table 11 run (different day), Foliage Treatment, spray 50 ppm (50 g/ha)
[3] = Table 11 run (different day), Seed Treatment 0.05 g/Seed 1 kg (5 g/ha)
[4] = Table 11 run (different day), Seed Treatment 0.5 g/Seed 1 kg (50 g/ha)
[5] = Table 12 run (different day), Foliage Treatment, spray 50 ppm (50 g/ha)
[6] = Table 12 run (different day), Seed Treatment 0.5 g/Seed 1 kg (50 g/ha)
[7] = Foliage Treatment, spray 500 ppm suspension water (corresponding to 500 g/ha) 14 days after seeding
[8] = Seed Treatment, 5 g/Seed 1 kg (corresponding to 500 g/ha)

O=S1(=O)N=C(OCc2snc(Cl)c2Cl)c2ccccc21 [Compound (1), Dichlobentiazox]
Degree of Disease Occurrence (powdery mildew; [1]): 95.3
Disease Leaf Rate (%) (powdery mildew; [1]): 100%
Degree of Disease Occurrence (powdery mildew; [2]): 89.1
Disease Leaf Rate (%) (powdery mildew; [2]): 100%
Degree of Disease Occurrence (powdery mildew; [3]): 56.4
Disease Leaf Rate (%) (powdery mildew; [3]): 93.8%
Degree of Disease Occurrence (powdery mildew; [4]): 22.7
Disease Leaf Rate (%) (powdery mildew; [4]): 71.9%
Degree of Disease Occurrence (powdery mildew; [5]): 21.7
Disease Leaf Rate (%) (powdery mildew; [5]): 46.7%
Degree of Disease Occurrence (powdery mildew; [6]): 0.0
Disease Leaf Rate (%) (powdery mildew; [6]): 0.0%
Degree of Disease Occurrence (septoria leaf blotch; [7]): 71.9
Disease Leaf Rate (%) (septoria leaf blotch; [7]): 100.0%
Degree of Disease Occurrence (septoria leaf blotch; [8]): 45.7
Disease Leaf Rate (%) (septoria leaf blotch; [8]): 95.8%

— US20220000117A1, “METHOD FOR CONTROLLING DISEASES IN SMALL GRAIN CEREALS, SEED OF SMALL GRAIN CEREALS, AND METHOD FOR SUPPRESSING LODGING DAMAGE IN SMALL GRAIN CEREALS” (KUMIAI CHEMICAL INDUSTRY CO., LTD., priority 2019, published 2022)
